The values below are quoted from earlier work in patent US20070232656A1, “Pharmaceutical Composition And Method For Treating Neurodegenerative Disorders” (Myriad Genetics, Incorporated, priority 2004, published 2007).

Data set [1] concerns Aβ42. The following applies: CHO cells.
In data set [2] the test system is COX.
The conditions of data set [3]: 50 mg and 100 mg doses, human subjects.
For data set [4], the system named is Aβ42. To be noted: transgenic mouse model.
For data set [5] the following is noted: patients having mild cognitive impairment.
The conditions of data set [6]: in vivo Alzheimer's disease excitotoxic model system.
For data set [7] the following is noted: for efficacy for treating AD: clinical trials in AD patients (rofecoxib at 25 mg daily).

Molecules are shown by their SMILES. Read-outs that look alike come from different tables or passages of the source.

With `C[C@@H](C(=O)O)c1ccc(-c2ccccc2)c(F)c1` [(R)-2-(2-fluoro-4-biphenylyl)propionic acid], the “lowering of Aβ42” value in data set [1] and in data set [4] was “lower Aβ42” in each case. Moreover, in data set [2], the “inhibition of COX activity” value is on record as “negligibly inhibits COX activity”. The analgesic effect entry in data set [3] is given as “produced an analgesic effect”.
In the case of `CS(=O)(=O)c1ccc(C2=C(c3ccccc3)C(=O)OC2)cc1` [rofecoxib], the “prevention of the development of Alzheimer's disease” value in data set [5] is listed as “failed to prevent the development of Alzheimer's disease”. The “patients who developed AD” value in data set [5] (4.5% for placebo) is recorded as 6.4%. Besides, the neuroprotection entry in data set [6] is given as “provides neuroprotection”. Also, the “efficacy for treating AD” value in data set [7] is “failed to show efficacy”.
In the case of `COc1ccc2cc([C@H](C)C(=O)O)ccc2c1` [Naproxen], the “efficacy for treating AD” value in data set [7] was “failed to show efficacy”.
As for `CC12CC3CC(C)(C1)CC(N)(C3)C2` [memantine], in data set [7] (mild-to-moderate AD), the “efficacy in treating mild-to-moderate AD” value is recorded as “showed efficacy”.
